Source: patent publication US20020025307A1, “Bone sialoprotein based toxic gene therapy for the treatment of calcified tumors and tissues” (priority 1998, published 2002)

Legend:
[1] = Body weight of experimental animals in the PC-3 tumor study; type: in vivo, athymic nude (nu/nu) mice; details: nude mice bearing PC3 tumors; intratumoral Ad-BSP-TK; GCV 40 mg/kg i.p.
Description: FIG. 10 represents an in vivo experiment performed with 16 animals. Briefly, congenitally athymic nude (nu/nu) mice (Harlan Co., Houston, Tex.) 5 to 6 weeks of age, were inoculated s.c. with 2 million PC3 prostate cancer cells. When the tumor became palpable (4-5 mm in diameter), approximately 10 days after cell injection, the animals were randomly assigned to four experimental groups: group: 1, control group with no treatment; 2, intratumoral PBS on days 10, 17, 24 and 30; 3, Ad-BSP-TK only; and 4, Ad-BSP-TK plus GCV given on days 10-40. For Ad-BSP-TK injections, a microliter syringe fitted with a 28 gauge needle was used to deliver 75 μl of Ad-BSP-TK (1×10^9 plaque-forming units). The Ad-BSP-TK was injected intratumorally along both the long and short axes of the tumor; one injection parallel to the long axis, and one perpendicular to the axis. The needle point was then rotated within the tumor to maximize the area of Ad delivery. Tumor volume was calculated by the following formula: volume (a rotational ellipsoid)-M1xM2^2×0.5236 (M1, long axis; M2, short axis; Ko. S-C., Gotoh, A., Thalmann, G. N., Zhou, H. E., Johnston, D. A, Zhang, W. W., Kao, C., and Chung, L. W. K. Molecular therapy with recombinant p53 adenovirus in an androgen independent, metastatic human prostate cancer model. Hum. Gene Ther., 7:1683-1691, 1996). […]

BSP promoter = assay: BSP promoter-driven luciferase reporter activity in transfected cells; type: cell-based, human; details: mineralization conditions versus T media, 2186 base pair construct
Description: Cells ([…]) were exposed to a BSP promoter-luciferase vector (2.5 ug) with liposome mediated transfection for 4-6 hours, then allowed to grow approximately 2 days at which time cell lysates were obtained and assayed for relative luciferase activity (RLU). All values were standardized with cotransfection of CMV-betagalactosidase reporter plasmid (0.5 ug).

SMILES | effect on body weight [1] | BSP promoter expression as RLU (BSP promoter; C4-2B4) | BSP promoter expression as RLU (BSP promoter; Du-145) | BSP promoter expression as RLU (BSP promoter; PC-3)
Nc1nc(O)c2ncn(COC(CO)CO)c2n1 [GCV, Gancyclovir] | did not adversely affect the body weight | – | – | –
O=C1O[C@H]([C@@H](O)CO)C(O)=C1O [L-ascorbic acid] | – | hightened response | hightened response | hightened response
